Laboratory results published in US11254663B2 (BRISTOL-MYERS SQUIBB COMPANY, priority 2019, dated 2022).

Tests used:
[1] = patients with NASH, 72-week clinical trial; cited from earlier work
[2] = T2DM patients with NAFLD, 6-week clinical trial; cited from earlier work
[3] = target: FXR (Homo sapiens (Human), UniProt Q96RI1); assay: FXR EC50 (FXR agonist potency reported with each Example); format: cell-based
Chain of FXR (Q96RI1 262-486): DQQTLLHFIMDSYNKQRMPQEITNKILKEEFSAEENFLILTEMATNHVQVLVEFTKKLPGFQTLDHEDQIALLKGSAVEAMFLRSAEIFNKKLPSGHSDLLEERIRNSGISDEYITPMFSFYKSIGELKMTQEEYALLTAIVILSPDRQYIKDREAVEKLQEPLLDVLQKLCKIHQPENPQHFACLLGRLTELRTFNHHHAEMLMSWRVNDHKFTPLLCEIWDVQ

| SMILES | EC50 [3] [nM] | also measured |
| --- | --- | --- |
| CC[C@H]1[C@@H](O)[C@@H]2[C@H](CC[C@]3(C)[C@@H]([C@H](C)CCC(=O)O)CC[C@@H]23)[C@@]2(C)CC[C@@H](O)C[C@@H]12 [OCA, obeticholic acid] | – | hepatic steatosis, lobular inflammation, hepatocyte ballooning, and fibrosis as assessed by histological analyses of liver biopsies [1]: statistically significantly improved hepatic steatosis, lobular inflammation, hepatocyte ballooning, and fibrosis; body weight [2]: reduced body weight; insulin sensitivity [2]: statistically significantly improved insulin sensitivity |
| O=C(N(CC12CCC(c3nc(CC4CC4)no3)(CC1)CC2)c1cccc(-c2nc(C3CC3)no2)c1)C12CC(F)(C1)C2 [Example 68, N-(3-(3-cyclopropyl-1,2,4-oxadiazol-5-yl)phenyl)-N-((4-(3-(cyclopropylmethyl)-1,2,4-oxadiazol-5-yl)bicyclo[2.2.2]octan-1-yl)methyl)-3-fluorobicyclo[1.1.1]pentane-1-carboxamide] | 110 | – |
| O=C(C1CC(F)(F)C1)N(CC12CCC(c3nc(C4CC4)cs3)(CC1)CC2)c1cccc(-c2nc(C3CC3)no2)c1 [Example 101, N-(3-(3-cyclopropyl-1,2,4-oxadiazol-5-yl)phenyl)-N-((4-(4-cyclopropylthiazol-2-yl)bicyclo[2.2.2]octan-1-yl)methyl)-3,3-difluorocyclobutane-1-carboxamide] | 635 | – |
| CC(C)(C)c1noc(C23CCC(CN(C(=O)C45CC(F)(C4)C5)c4cccc(-c5nnc(C6CC6)o5)c4)(CC2)CC3)n1 [Example 153, N-((4-(3-(tert-butyl)-1,2,4-oxadiazol-5-yl)bicyclo[2.2.2]octan-1-yl)methyl)-N-(3-(5-cyclopropyl-1,3,4-oxadiazol-2-yl)phenyl)-3-fluorobicyclo[1.1.1]pentane-1-carboxamide] | 73 | – |
| CC(C)(C)c1nc(C23CCC(CN(C(=O)C45CC(F)(C4)C5)c4cccc(-c5nc(C6CC6)no5)c4)(CC2)CC3)no1 [Example 119, N-((4-(5-(tert-butyl)-1,2,4-oxadiazol-3-yl)bicyclo[2.2.2]octan-1-yl)methyl)-N-(3-(3-cyclopropyl-1,2,4-oxadiazol-5-yl)phenyl)-3-fluorobicyclo[1.1.1]pentane-1-carboxamide] | 15 | – |
| CC(F)(F)c1nc(C23CCC(CN(C(=O)C45CC(F)(C4)C5)c4cccc(-c5nc(C6CC6)no5)c4)(CC2)CC3)no1 [Example 121, N-(3-(3-cyclopropyl-1,2,4-oxadiazol-5-yl)phenyl)-N-((4-(5-(1,1-difluoroethyl)-1,2,4-oxadiazol-3-yl)bicyclo[2.2.2]octan-1-yl)methyl)-3-fluorobicyclo[1.1.1]pentane-1-carboxamide] | 22 | – |
| O=C(N(CC12CCC(c3nc(C4CC4)no3)(CC1)CC2)c1cccc(-c2cnn(CC(F)(F)F)c2)c1)C12CC(F)(C1)C2 [Example 162, N-((4-(3-cyclopropyl-1,2,4-oxadiazol-5-yl)bicyclo[2.2.2]octan-1-yl)methyl)-3-fluoro-N-(3-(1-(2,2,2-trifluoroethyl)-1H-pyrazol-4-yl)phenyl)bicyclo[1.1.1]pentane-1-carboxamide] | 116 | – |
